Patent US8629277B2, “Styrenyl 1,2,4-oxadiazole compounds” (Piramal Enterprises Limited, priority 2010, dated 2014)
Counter-ions that a name gives are not always drawn. Like-named read-outs stand apart in the source and are kept apart here.

Tests used:
K562 [1] = assay: Cell proliferation and cytotoxicity CCK-8 assay; assay type: cell-based, human; conditions: imatinib sensitive cell line K562, CCK-8, 72 h, read-out: Inhibitory concentrations (IC50) K562
Ba/F3 Bcr-Abl/T315I = Ba/F3 Bcr-Abl/T315I (Homo sapiens, UniProt P00519, T315I, cells depend on it); conditions: read-out: Inhibitory concentrations (IC50) Ba/F3 Bcr-Abl/T315I; imatinib resistant cell line; CCK-8, 72 h
From the text: (§1) Cell Proliferation and Cytotoxicity CCK-8 Assay:
(§2) Cell Counting Kit-8 (CCK-8) assay is a sensitive colorimetric assay for the determination of number of viable cells in cell proliferation and cytotoxicity assays. Cell Counting Kit-8 (CCK-8) utilizes Dojindo's highly water-soluble tetrazolium salt. The amount of the formazan dye generated by dehydrogenases in cells is directly proportional to the number of living cells.
(§3) The cell lines described in Table 1 were used to test the antiproliferative activity of the compounds of the present invention.
(§4) Cells were seeded at a density of ˜5×10^3 per well (0.09 mL) in a transparent 96-well tissue culture plate (NUNC, USA) and allowed to incubate at 37° C., 5% CO2 incubator for 2-6 h. Different concentrations of compounds of the present invention were added to the wells of the culture plate in triplicate. […] Plates were further incubated in an incubator at 37° C. in presence of 5% CO2 for 72 h. 10 μL of the CCK-8 solution was added to each well and plate was incubated for 1-4 h in the incubator. The absorbance was measured at 450 nm using a microplate reader. The percent inhibition and IC50 were calculated in comparison with control values.

Ba/F3 Bcr-Abl/WT = target: T1, Ba/F3 Bcr-Abl/WT (Homo sapiens, UniProt P00519); assay: Cell proliferation and cytotoxicity CCK-8 assay; assay type: cell-based; conditions: imatinib sensitive cell line; CCK-8, 72 h; read-out: Inhibitory concentrations (IC50) Ba/F3 Bcr-Abl/WT
T1 construct: fused on or other part: P11274 (Breakpoint cluster region protein)
From the text: as §1, §2, §3, §4

K562 [2] = assay: Flow cytometric analysis of apoptosis (PI staining); assay type: cell-based, human
Protocol: (§5) Effect of the Compounds of Present Invention in Bcr-Abl Mutated Imatinib Mesylate-Resistant Cell Lines on Cell Cycle and Apoptosis Using Flow Cytometry.
(§6) The assay was carried out as in reference, FEBS Letters, 2007, 581, 7, 1329-1334. […] At the end of incubation, cells were harvested by centrifugation at 1000 rpm for 10 minutes, washed with phosphate buffered saline (PBS) and gradually resuspended in 70% ice-cold ethanol (to facilitate the permeablisation of stains). Cell suspension was stored for a minimum period of 4 h before staining with propidium iodide (PI). Fixed cells were stained with PI (80 μg/mL) in presence of RNase A (50 μg/mL), and read on Becton Dickinson FACS Calibur (USA) for cell cycle analysis.

Y253 = assay: as above; assay type: cell-based
Protocol: as §5, §6

T315I = assay: as above; assay type: cell-based
Protocol: as §5, §6

E255V = assay: as above; assay type: cell-based
Protocol: as §5, §6

Ba/F3 = assay: as above; assay type: cell-based
Protocol: as §5, §6

Row | Structure (SMILES) | IC50 (K562 [1]; Homo sapiens) [µM] | GI50 (Ba/F3 Bcr-Abl/T315I) [µM] | GI50 (Ba/F3 Bcr-Abl/WT) [µM] | further results
1 | CCCCCCCc1noc(C=Cc2ccc(O)c(O)c2)n1 [Compound of Example 52, 4-[2-(3-Heptyl-[1,2,4]oxadiazol-5-yl)-vinyl]-benzene-1,2-diol] | < 10 | < 10 | < 10 | –
2 | CCCCCCCCc1noc(C=Cc2ccc(O)c(O)c2)n1 [Compound of Example 49, 4-[2-(3-Octyl-[1,2,4]oxadiazol-5-yl)-vinyl]-benzene-1,2-diol] | < 10 | < 10 | < 10 | –
3 | CCCCCCCCCc1noc(C=Cc2ccc(O)c(O)c2)n1 [Compound of Example 34, 4-[2-(3-Nonyl-[1,2,4]oxadiazol-5-yl)-vinyl]-benzene-1,2-diol] | 11 to 100 | < 10 | < 10 | –
4 | CN1CCC(c2noc(C=Cc3ccc(O)c(O)c3)n2)CC1 [Compound of Example 20, 4-[2-(3-Piperidin-4,1-methyl-[1,2,4]oxadiazol-5-yl)-vinyl]-benzene-1,2-diol] | – | 11 to 100 | 11 to 100 | IC50 (K562 [1]): 11 to 100 µM
5 | Oc1ccc(C=Cc2nc(CC3CCCCC3)no2)cc1O [Compound of Example 46, 4-[2-(3-Cyclohexylmethyl-[1,2,4]oxadiazol-5-yl)-vinyl]-benzene-1,2-diol] | < 10 | < 10 | < 10 | –
6 | Oc1ccc(C=Cc2nc(-c3cccnc3)no2)cc1O [Compound of Example 55, 4-[2-(3-Pyridin-3-yl-[1,2,4]oxadiazol-5-yl)-vinyl]-benzene-1,2-diol] | 11 to 100 | < 10 | < 10 | –
7 | CCc1noc(C=Cc2ccc(O)c(O)c2)n1 [Compound of Example 2, 4-[2-(3-Ethyl-[1,2,4]oxadiazol-5-yl)-vinyl]-benzene-1,2-diol] | < 10 | < 10 | < 10 | –
8 | Oc1ccc(C=Cc2nc(C3CCCCCC3)no2)cc1O [Compound of Example 58, 4-[2-(3-Cycloheptyl-[1,2,4]oxadiazol-5-yl)-vinyl]-benzene-1,2-diol] | 11 to 100 | < 10 | < 10 | –
9 | CC(C)N1CCC(Cc2noc(C=Cc3ccc(O)c(O)c3)n2)CC1 [Compound of Example 22, 4-{2-[3-(1-Isopropyl-piperidin-4-ylmethyl)-[1,2,4]oxadiazol-5-yl]-vinyl}-benzene-1,2-diol] | 11 to 100 | 11 to 100 | 11 to 100 | –
10 | CCCCCc1noc(C=Cc2ccc(O)c(O)c2)n1 [Compound of Example 40, 4-[2-(3-Pentyl-[1,2,4]oxadiazol-5-yl)-vinyl]-benzene-1,2-diol] | < 10 | < 10 | < 10 | –
11 | Oc1ccc(C=Cc2nc(C3CCCCC3)no2)cc1O [Compound of Example 61, 4-[2-(3-Cyclohexyl-[1,2,4]oxadiazol-5-yl)-vinyl]-benzene-1,2-diol] | 11 to 100 | < 10 | < 10 | –
12 | CCCc1noc(C=Cc2ccc(O)c(NS(C)(=O)=O)c2)n1 [Compound of Example 10, N-{2-Hydroxy-5-[2-(3-propyl-[1,2,4]oxadiazol-5-yl)-vinyl]-phenyl}-methanesulfonamide] | > 100 | 11 to 100 | 11 to 100 | –
13 | Oc1ccc(C=Cc2nc(CC3CCN(Cc4ccccc4)CC3)no2)cc1O [Compound of Example 31, 4-{2-[3-(1-Benzyl-piperidin-4-ylmethyl)-[1,2,4]oxadiazol-5-yl]-vinyl}-benzene-1,2-diol] | 11 to 100 | 11 to 100 | 11 to 100 | –
14 | Oc1ccc(C=Cc2nc(C3CC3)no2)cc1O [Compound of Example 37, 4-[2-(3-Cyclopropyl-[1,2,4]oxadiazol-5-yl)-vinyl]-benzene-1,2-diol] | < 10 | < 10 | < 10 | –
15 | CN(C)CCN1CCC(Cc2noc(C=Cc3ccc(O)c(O)c3)n2)CC1 [Compound of Example 24, 4-(2-{3-[1-(2-Dimethylamino-ethyl)-piperidin-4-ylmethyl]-[1,2,4]oxadiazol-5-yl}-vinyl)-benzene-1,2-diol] | 11 to 100 | 11 to 100 | 11 to 100 | –
16 | Cc1ccc(NC(=O)c2ccc(CN3CCN(C)CC3)cc2)cc1Nc1nccc(-c2cccnc2)n1 [imatinib mesylate, Imatinib mesylate, reference compound] | – | – | – | % Apoptosis by Flow Cytometry Analysis (K562 [2]; 3X IC50, 96 h time point): 95%; % Apoptosis by Flow Cytometry Analysis (K562 [2]; 5X IC50, 48 h time point): 3.9%; % Apoptosis by Flow Cytometry Analysis (K562 [2]; 5X IC50, 96 h time point): 92.6%; % Apoptosis by Flow Cytometry Analysis (Y253; 3X IC50, 96 h time point): 85.2%; % Apoptosis by Flow Cytometry Analysis (Y253; 5X IC50, 48 h time point): 78%; % Apoptosis by Flow Cytometry Analysis (Y253; 5X IC50, 96 h time point): 98.2%; % Apoptosis by Flow Cytometry Analysis (T315I; 3X IC50, 96 h time point): 26.6%; % Apoptosis by Flow Cytometry Analysis (T315I; 5X IC50, 48 h time point): 4.3%; % Apoptosis by Flow Cytometry Analysis (T315I; 5X IC50, 96 h time point): 25.2%; % Apoptosis by Flow Cytometry Analysis (E255V; 3X IC50, 96 h time point): 61%; % Apoptosis by Flow Cytometry Analysis (E255V; 5X IC50, 48 h time point): 96.7%; % Apoptosis by Flow Cytometry Analysis (E255V; 5X IC50, 96 h time point): 98.4%; % Apoptosis by Flow Cytometry Analysis (Ba/F3; 3X IC50, 96 h time point): 51%; % Apoptosis by Flow Cytometry Analysis (Ba/F3; 5X IC50, 48 h time point): 40.3%; % Apoptosis by Flow Cytometry Analysis (Ba/F3; 5X IC50, 96 h time point): 31%
17 | Cc1noc(C=Cc2ccc(O)c(O)c2)n1 [Compound of Example 1, 4-[2-(3-Methyl-[1,2,4]oxadiazol-5-yl)-vinyl]-benzene-1,2-diol] | 11 to 100 | 11 to 100 | 11 to 100 | –
18 | CCCCCCc1noc(C=Cc2ccc(O)c(O)c2)n1 [Compound of Example 43] | – | < 10 | < 10 | IC50 (K562 [1]): < 10 µM
19 | CCCc1nc(C=Cc2ccc(O)c(N)c2)no1 [Compound of Example 12, 2-Amino-4-[2-(5-propyl-[1,2,4]oxadiazol-3-yl)-vinyl]-phenol] | 11 to 100 | < 10 | 11 to 100 | –
